SMILES	melting point [°C]
Cc1cc(-c2ccc(C(F)(F)F)cc2)cn2c(C#Cc3cnc(N)nc3)cnc12 [Example 220, 5-[8-Methyl-6-(4-trifluoromethyl-phenyl)-imidazo[1,2-a]pyridin-3-ylethynyl]-pyrimidin-2-ylamine]	236
O=S(=O)(c1ccc(C#Cc2cnn3c(C(F)(F)F)cc(-c4ccc(C(F)(F)F)cc4)nc23)s1)N(CCO)CCO [Example 162, 5-[7-Trifluoromethyl-5-(4-trifluoromethyl-phenyl)-pyrazolo[1,5-a]pyrimidin-3-ylethynyl]-thiophene-2-sulfonic acid bis-(2-hydroxy-ethyl)-amide]	137
CN(C)CCNS(=O)(=O)c1cc(C#Cc2cnn3c(C(F)F)cc(-c4ccc(C(F)(F)F)cc4)nc23)c(F)cc1F [Example 134, 5-[7-Difluoromethyl-5-(4-trifluoromethyl-phenyl)-pyrazolo[1,5-a]pyrimidin-3-ylethynyl]-N-(2-dimethylamino-ethyl)-2,4-difluoro-benzenesulfonamide]	165 to 166
Nc1ncc(C#Cc2cnc3ccc(-c4ccc(C(F)(F)F)cc4)cn23)cn1 [Example 238, 5-[6-(4-Trifluoromethyl-phenyl)-imidazo[1,2-a]pyridin-3-ylethynyl]-pyrimidin-2-ylamine]	244 to 246
CC(=O)Nc1ccc(C#Cc2cnn3c(C(F)(F)F)cc(-c4ccc(C(F)(F)F)cc4)nc23)cc1 [Example 207, N-{4-[7-Trifluoromethyl-5-(4-trifluoromethyl-phenyl)-pyrazolo[1,5-a]pyrimidin-3-ylethynyl]-phenyl}-acetamide]	238
CC(C)(CO)NS(=O)(=O)c1cncc(C#Cc2cnn3c(C4CC4)cc(-c4ccc(C(F)(F)F)cc4)nc23)c1 [Example 78, 5-[7-Cyclopropyl-5-(4-trifluoromethyl-phenyl)-pyrazolo[1,5-a]pyrimidin-3-ylethynyl]-pyridine-3-sulfonic acid (2-hydroxy-1,1-dimethyl-ethyl)-amide]	190 to 191
NS(=O)(=O)c1ccc(C#Cc2cnn3c(C(F)(F)F)cc(-c4ccc(C(F)(F)F)cc4)nc23)c(F)c1 [Example 45, 3-Fluoro-4-[7-trifluoromethyl-5-(4-trifluoromethyl-phenyl)-pyrazolo[1,5-a]pyrimidin-3-ylethynyl]-benzenesulfonamide]	230 to 232
O=S(=O)(NC(CO)CO)c1ccc(C#Cc2cnn3c(C(F)(F)F)cc(-c4ccc(C(F)(F)F)cc4)nc23)s1 [Example 163, 5-[7-Trifluoromethyl-5-(4-trifluoromethyl-phenyl)-pyrazolo[1,5-a]pyrimidin-3-ylethynyl]-thiophene-2-sulfonic acid (2-hydroxy-1-hydroxymethyl-ethyl)-amide]	247
CC(C)(CO)NS(=O)(=O)c1cccc(C#Cc2cnn3c(C4CC4)cc(-c4ccc(Cl)cc4)nc23)c1 [Example 65, 3-[5-(4-Chloro-phenyl)-7-cyclopropyl-pyrazolo[1,5-a]pyrimidin-3-ylethynyl]-N-(2-hydroxy-1,1-dimethyl-ethyl)-benzenesulfonamide]	202 to 204
CC(C)(O)c1ccc(C#Cc2cnn3c(C4CC4)cc(-c4ccc(Cl)cc4)nc23)cc1 [Example 300, 2-{4-[5-(4-Chloro-phenyl)-7-cyclopropyl-pyrazolo[1,5-a]pyrimidin-3-ylethynyl]-phenyl}-propan-2-ol]	148 to 150
Cc1cc(-c2cc(C(F)(F)F)n3ncc(C#Cc4ccc(S(N)(=O)=O)cc4)c3n2)ccc1Cl [Example 110, 4-[5-(4-Chloro-3-methyl-phenyl)-7-trifluoromethyl-pyrazolo[1,5-a]pyrimidin-3-ylethynyl]-benzenesulfonamide]	275
NS(=O)(=O)c1cc(C#Cc2cnn3c(C(F)(F)F)cc(-c4ccc(Cl)cc4)nc23)c(F)cc1F [Example 96, 5-[5-(4-Chloro-phenyl)-7-trifluoromethyl-pyrazolo[1,5-a]pyrimidin-3-ylethynyl]-2,4-difluoro-benzenesulfonamide]	292 to 293
COCCNS(=O)(=O)c1ccc(C#Cc2cnn3c(C(F)(F)F)cc(-c4ccc(C(F)(F)F)cc4)nc23)cc1 [Example 124, N-(2-Methoxy-ethyl)-4-[7-trifluoromethyl-5-(4-trifluoromethyl-phenyl)-pyrazolo[1,5-a]pyrimidin-3-ylethynyl]-benzenesulfonamide]	185 to 187
CC(C)(CO)NS(=O)(=O)c1cnc(C#Cc2cnn3c(C4CC4)cc(-c4ccc(Cl)cc4)nc23)s1 [Example 64, 2-[5-(4-Chloro-phenyl)-7-cyclopropyl-pyrazolo[1,5-a]pyrimidin-3-ylethynyl]-thiazole-5-sulfonic acid (2-hydroxy-1,1-dimethyl-ethyl)-amide]	204 to 207
Cc1ccc(C#Cc2cnn3c(C(F)F)cc(-c4ccc(C(F)(F)F)cc4)nc23)cc1S(=O)(=O)NCCO [Example 61, 5-[7-Difluoromethyl-5-(4-trifluoromethyl-phenyl)-pyrazolo[1,5-a]pyrimidin-3-ylethynyl]-N-(2-hydroxy-ethyl)-2-methyl-benzenesulfonamide]	184 to 186
FC(F)(F)c1ccc(-c2cc(C(F)(F)F)n3ncc(C#Cc4ccc(C5CC5)nc4)c3n2)cc1 [Example 10, 3-(2-Cyclopropyl-pyridin-5-ylethynyl)-7-trifluoromethyl-5-(4-trifluoromethyl-phenyl)-pyrazolo[1,5-a]pyrimidine]	138 to 140
CC(C)(C)NS(=O)(=O)c1ccc(C#Cc2cnn3c(C(F)F)cc(-c4ccc(C(F)(F)F)cc4)nc23)s1 [Example 165, 5-[7-Difluoromethyl-5-(4-trifluoromethyl-phenyl)-pyrazolo[1,5-a]pyrimidin-3-ylethynyl]-thiophene-2-sulfonic acid tert-butylamide]	187
Cc1cc(-c2cc(C(F)(F)F)n3ncc(C#Cc4cccc(S(=O)(=O)NC(C)(C)CO)c4)c3n2)ccc1Cl [Example 102, 3-[5-(4-Chloro-3-methyl-phenyl)-7-trifluoromethyl-pyrazolo[1,5-a]pyrimidin-3-ylethynyl]-N-(2-hydroxy-1,1-dimethyl-ethyl)-benzenesulfonamide]	204
NS(=O)(=O)c1ccc(C#Cc2cnn3ccc(-c4ccc(C(F)(F)F)cc4)nc23)s1 [Example 311, 5-[5-(4-Trifluoromethyl-phenyl)-pyrazolo[1,5-a]pyrimidin-3-ylethynyl]-thiophene-2-sulfonic acid amide]	224 to 226
NS(=O)(=O)c1cccc(C#Cc2cnn3c(C(F)F)cc(-c4ccc(C(F)(F)F)cc4)nc23)c1 [Example 42, 3-[7-Difluoromethyl-5-(4-trifluoromethyl-phenyl)-pyrazolo[1,5-a]pyrimidin-3-ylethynyl]-benzenesulfonamide]	246 to 247
O=S(=O)(c1cccc(C#Cc2cnn3c(C(F)(F)F)cc(-c4ccc(C(F)(F)F)cc4)nc23)c1)N1CCOCC1 [Example 129, 3-[3-(morpholine-4-sulfonyl)-phenylethynyl]-7-trifluoromethyl-5-(4-trifluoromethyl-phenyl)-pyrazolo[1,5-a]pyrimidine]	203 to 204
CC(CO)NS(=O)(=O)c1cncc(C#Cc2cnn3c(C(F)(F)F)cc(-c4ccc(C(F)(F)F)cc4)nc23)c1 (stereo not drawn) [Example 28, 5-[7-Trifluoromethyl-5-(4-trifluoromethyl-phenyl)-pyrazolo[1,5-a]pyrimidin-3-ylethynyl]-pyridine-3-sulfonic acid (2-hydroxy-1-methyl-ethyl)-amide]	225 to 226
Nc1ncc(C#Cc2cnn3c(C(F)F)cc(-c4ccc(C(F)(F)F)cc4)nc23)cn1 [Example 213, 5-[7-Difluoromethyl-5-(4-trifluoromethyl-phenyl)-pyrazolo[1,5-a]pyrimidin-3-ylethynyl]-pyrimidin-2-ylamine]	242 to 243
CC(C)(O)c1ccc(C#Cc2cnn3c(CO)cc(-c4ccc(Cl)cc4)nc23)cc1 [Example 299, 2-{4-[5-(4-Chloro-phenyl)-7-hydroxymethyl-pyrazolo[1,5-a]pyrimidin-3-ylethynyl]-phenyl}-propan-2-ol]	118 to 120
NS(=O)(=O)c1cc(C#Cc2cnn3c(C4CC4)cc(-c4ccc(C(F)(F)F)cc4)nc23)c(F)cc1F [Example 77, 5-[7-Cyclopropyl-5-(4-trifluoromethyl-phenyl)-pyrazolo[1,5-a]pyrimidin-3-ylethynyl]-2,4-difluoro-benzenesulfonamide]	255 to 257
Cc1cc(-c2cc(C(F)F)n3ncc(C#Cc4ccc(S(=O)(=O)NCCN(C)C)s4)c3n2)ccc1Cl [Example 256, 5-[5-(4-Chloro-3-methyl-phenyl)-7-difluoromethyl-pyrazolo[1,5-a]pyrimidin-3-ylethynyl]-thiophene-2-sulfonic acid (2-dimethylamino-ethyl)-amide]	149
CNS(=O)(=O)c1cccc(C#Cc2cnn3c(C(F)(F)F)cc(-c4ccc(C(F)(F)F)cc4)nc23)c1 [Example 130, N-Methyl-3-[7-trifluoromethyl-5-(4-trifluoromethyl-phenyl)-pyrazolo[1,5-a]pyrimidin-3-ylethynyl]-benzenesulfonamide]	213 to 214
CN(C)CCNS(=O)(=O)c1ccc(C#Cc2cnn3c(C(F)(F)F)cc(-c4ccc(C(F)(F)F)cc4)nc23)s1 [Example 159, 5-[7-Trifluoromethyl-5-(4-trifluoromethyl-phenyl)-pyrazolo[1,5-a]pyrimidin-3-ylethynyl]-thiophene-2-sulfonic acid (2-dimethylamino-ethyl)-amide]	178
Nc1ccc(C#Cc2cnn3c(C4CC4)cc(-c4ccc(C(F)(F)F)cc4)nc23)cn1 [Example 293, 5-[7-Cyclopropyl-5-(4-trifluoromethyl-phenyl)-pyrazolo[1,5-a]pyrimidin-3-ylethynyl]-pyridin-2-ylamine]	228 to 231
Nc1ccc(C#Cc2cnn3c(CO)cc(-c4ccc(Cl)cc4)nc23)cn1 [Example 298, [3-(6-Amino-pyridin-3-ylethynyl)-5-(4-chloro-phenyl)-pyrazolo[1,5-a]pyrimidin-7-yl]-methanol]	215 to 217

From patent US8063048B2, “Acetylenyl-pyrazolo-pyrimidine derivatives” (Hoffmann-La Roche Inc., priority 2005, dated 2011)
